Here are results for 33 compounds from patent EP4748833A1, “AMPK AGONIST AND USE THEREOF” (priority 2023, dated 2025).

Like-named read-outs stand apart in the source and are kept apart here.

This test deals with T1, AMPKα1β1γ1 (Homo sapiens, UniProt Q13131+Q9Y478).
T1 construct: purchased CARNA 02-113
Description: In vitro assay for AMPK (α1β1γ1) enzyme agonist activity (TR-FRET). The test is classed as biochemical. As to conditions: for Emax: 1 h, read-out: Top value. The method, then:
Test compounds were dissolved in DMSO to prepare 10 mM stock solution, which was then diluted to the predetermined test concentrations using kinase buffer (50 mM HEPES, 1 mM EDTA, 10 mM MgCl2, 0.01% Brij-35, pH = 7.5). Into a 384-well plate were added 5 µL of AMPKα1β1γ1 (CARNA, 02-113), 2.5 µL of the diluted test compound solution, and 2.5 µL of a mixture of Ulight-CRBN and ATP, resulting in the following final concentrations: AMPKα1β1γ1 at 1.6 mg/L, Ulight-CRBN at 5 nM, and ATP at 0.1 mM. The components were mixed evenly, and reacted at room temperature for 1 hour. Subsequently, 5 µL of LANCE Detection Buffer (CR97-100, PerkinElmer) containing 40 mM EDTA was added. After standing for 5 minutes, 5 µL of 4× Eu-anti-phospho-CREB Antibody (TRF0200-M, PerkinElmer) was added, and the mixture was allowed to stand at room temperature for 1 h. The values of samples in each well were read using a microplate reader in TR-FRET mode (excitation wavelength: 320 nm; emission wavelengths: 665 nm and 615 nm). By comparing the values with those of the blank control group (1% DMSO) and the positive control group (1 µM A769662), the relative activity of AMPKα1β1γ1 at each test compound concentration (4.57 nM, 13.72 nM, 41.15 nM, 123.46 nM, 370.37 nM, 1111.11 nM, 3333.33 nM, and 10000 nM) was calculated, with the activity of 1 µM A769662 set as 100%. The data were analysed in GraphPad Prism 9 using a Dose-response-Stimulation four-parameter regression model to obtain the Top and EC50 values for the test compounds. [drawing 522] has a structure of A769662.
(TR-FRET usually uses a lanthanide donor and a delayed reading to cut background.)

[1] abbreviates: AMPKα1β1γ1 1.6 mg/L, ATP 0.1 mM, 1 hour at room temperature, four-parameter regression, read-out: EC50.

T1 sequence (Q13131 whole entry): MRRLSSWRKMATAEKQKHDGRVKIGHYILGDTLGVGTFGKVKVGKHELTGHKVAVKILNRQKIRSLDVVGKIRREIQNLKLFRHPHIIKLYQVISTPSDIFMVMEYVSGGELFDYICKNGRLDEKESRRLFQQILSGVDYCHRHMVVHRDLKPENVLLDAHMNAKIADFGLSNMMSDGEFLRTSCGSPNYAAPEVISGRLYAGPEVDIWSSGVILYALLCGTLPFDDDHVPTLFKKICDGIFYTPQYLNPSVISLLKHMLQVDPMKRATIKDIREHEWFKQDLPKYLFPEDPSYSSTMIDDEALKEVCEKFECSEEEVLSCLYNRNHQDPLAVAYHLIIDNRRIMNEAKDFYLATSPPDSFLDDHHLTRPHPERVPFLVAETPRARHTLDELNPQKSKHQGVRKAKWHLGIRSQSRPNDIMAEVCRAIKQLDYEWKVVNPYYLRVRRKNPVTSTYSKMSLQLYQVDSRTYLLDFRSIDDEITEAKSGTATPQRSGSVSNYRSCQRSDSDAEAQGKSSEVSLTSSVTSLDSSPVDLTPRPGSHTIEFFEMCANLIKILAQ
T1 sequence (Q9Y478 whole entry): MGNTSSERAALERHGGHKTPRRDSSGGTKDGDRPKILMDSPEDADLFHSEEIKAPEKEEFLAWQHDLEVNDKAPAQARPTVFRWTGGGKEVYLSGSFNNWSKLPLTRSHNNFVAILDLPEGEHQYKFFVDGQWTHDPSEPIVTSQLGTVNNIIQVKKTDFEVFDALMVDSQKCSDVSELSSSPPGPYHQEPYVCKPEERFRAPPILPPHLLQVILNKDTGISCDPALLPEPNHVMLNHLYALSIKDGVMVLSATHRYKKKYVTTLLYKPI
T1 sequence (P54619 whole entry partner): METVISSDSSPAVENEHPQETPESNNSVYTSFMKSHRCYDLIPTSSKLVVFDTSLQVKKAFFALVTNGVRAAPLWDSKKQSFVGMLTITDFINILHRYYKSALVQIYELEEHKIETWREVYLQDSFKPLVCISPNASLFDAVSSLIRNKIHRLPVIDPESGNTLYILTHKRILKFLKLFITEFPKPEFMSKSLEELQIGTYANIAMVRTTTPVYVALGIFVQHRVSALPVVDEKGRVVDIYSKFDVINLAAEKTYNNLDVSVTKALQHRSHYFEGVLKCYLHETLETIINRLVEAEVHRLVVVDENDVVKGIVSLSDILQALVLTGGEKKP

Usually EC50 stands for the concentration needed to bring the measured effect to its halfway point. For the compound `O=C(O)Cc1c[nH]c2cc(Cl)c(-c3ccc(C4(O)CCC4)cc3)nc12` [Compound 1], the Emax was in the range of 50 to 70%. Moreover, the EC50 under setting [1] is over 800 nM.
In the case of `O=C(O)C(=O)c1c[nH]c2cc(Cl)c(-c3ccc(C4(O)CCC4)cc3)cc12` [Compound 2], the Emax was 70 to 100%. Further, the EC50 under setting [1] was under 200 nM.
Regarding `O=C(O)C(=O)c1c[nH]c2cc(Cl)c(-c3ccc(C4(O)CCC4)cc3)nc12` [Compound 3], the Emax lay within 50 to 70%. Besides, under setting [1], the EC50 is over 800 nM.
The corresponding values for `O=C(O)C(=O)c1c[nH]c2cc(Cl)c(-c3ccc(-c4ccccc4O)cc3)cc12` [Compound 4] are 50 to 70% and under 200 nM.
Consider `Cn1ccc2cc(-c3cc4c(C(=O)C(=O)O)c[nH]c4cc3Cl)ccc21` [Compound 5], for which the Emax lay within 70 to 100%. Moreover, the EC50 under setting [1] is under 200 nM.
The corresponding values for `O=C(O)C(=O)c1c[nH]c2cc(Cl)c(-c3ccc(C4(CO)CC4)cc3)cc12` [Compound 6] are over 100% and under 200 nM.
In the case of `COc1ccc(-c2cc3c(C(=O)C(=O)O)c[nH]c3cc2Cl)cc1` [Compound 7], the Emax was in the range of 70 to 100%. In addition, the EC50 under setting [1] lay within 200 to 800 nM.
As for `O=C(O)C(=O)c1c[nH]c2cc(Cl)c(-c3ccc(-c4ccccc4)cc3)cc12` [Compound 8], the Emax was under 50%. Also, the EC50 under setting [1] was under 200 nM.
The corresponding values for `O=C(NCc1ccccn1)c1c[nH]c2cc(Cl)c(-c3ccc(C4(O)CCC4)cc3)cc12` [Compound 9] are over 100% and over 800 nM.
For `O=C(NCC1COC1)c1c[nH]c2cc(Cl)c(-c3ccc(C4(O)CCC4)cc3)cc12` [Compound 10], the Emax lay within 50 to 70%. Besides, under setting [1], the EC50 is over 800 nM.
For the compound `O=C(NCc1ccno1)c1c[nH]c2cc(Cl)c(-c3ccc(C4(O)CCC4)cc3)cc12` [Compound 11], the Emax is 70 to 100%. Under setting [1], the EC50 was in the range of 200 to 800 nM.
The matching figures for `O=C(NCc1cnoc1)c1c[nH]c2cc(Cl)c(-c3ccc(C4(O)CCC4)cc3)cc12` [Compound 12]: over 100% and over 800 nM.
The matching figures for `O=C(Nc1ncc[nH]1)c1c[nH]c2cc(Cl)c(-c3ccc(-c4ccccc4)cc3)cc12` [Compound 13]: over 100% and over 800 nM.
Take `O=C(NCc1ccco1)c1c[nH]c2cc(Cl)c(-c3ccc(C4(CO)CC4)cc3)cc12` [Compound 14]: the Emax is over 100%. The EC50 under setting [1] is over 800 nM.
Take `O=C(NCc1cccs1)c1c[nH]c2cc(Cl)c(-c3ccc(C4(CO)CC4)cc3)cc12` [Compound 15]: the Emax was over 100%. Also, the EC50 under setting [1] was over 800 nM.
The corresponding values for `O=C(NCc1ncco1)c1c[nH]c2cc(Cl)c(-c3ccc(C4(CO)CC4)cc3)cc12` [Compound 16] are 70 to 100% and 200 to 800 nM.
The matching figures for `COC(=O)C(=O)c1c[nH]c2cc(Cl)c(-c3ccc(C4(CO)CC4)cc3)cc12` [Compound 17]: 70 to 100% and under 200 nM.
The corresponding values for `CNC(=O)C(=O)c1c[nH]c2cc(Cl)c(-c3ccc(C4(CO)CC4)cc3)cc12` [Compound 18] are 50 to 70% and 200 to 800 nM.
On to `Cn1ccc2cc(-c3cc4c(C(=O)NCc5ccco5)c(O)[nH]c4cc3Cl)ccc21` [Compound 19], for which the Emax is over 100%. In addition, under setting [1], the EC50 was 200 to 800 nM.
The corresponding values for `Cn1ccc2cc(-c3cc4c(C(=O)NCC(=O)O)c(O)[nH]c4cc3Cl)ccc21` [Compound 20] are over 100% and 200 to 800 nM.
The matching figures for `O=C1Nc2cc(Cl)c(-c3ccc(C4(CO)CC4)cc3)cc2C1=CNCc1ccco1` [Compound 21]: under 50% and over 800 nM.
With `Cn1ccc2cc(-c3cc4c(cc3Cl)NC(=O)C4(C)C(=O)NCc3ccco3)ccc21` (centres unmarked) [Compound 22], the EC50 under setting [1] was over 800 nM.
Take `O=C(Nc1ccn[nH]1)c1c[nH]c2cc(Cl)c(-c3ccc(C4(CO)CC4)cc3)cc12` [Compound 23]: the Emax was over 100%. Moreover, the half-maximal effective concentration (EC50) under setting [1] is under 200 nM.
For the compound `O=C(Nc1ncco1)c1c[nH]c2cc(Cl)c(-c3ccc(-c4ccccc4)cc3)cc12` [Compound 24], the EC50 is over 800 nM and the Emax is over 100%.
The corresponding values for `CN(Cc1cccs1)C(=O)c1c[nH]c2cc(Cl)c(-c3ccc(C4(CO)CC4)cc3)cc12` [Compound 25] are over 800 nM and under 50%.
The corresponding values for `CN(C(=O)c1c[nH]c2cc(Cl)c(-c3ccc(C4(CO)CC4)cc3)cc12)c1cc[nH]n1` [Compound 27] are over 800 nM and over 100%.
`O=C(NCc1ccco1)c1c(O)[nH]c2cc(Cl)c(-c3ccc(C4(CO)CC4)cc3)cc12` [Compound 31]: the Emax is over 100%. Also, the EC50 under setting [1] was in the range of 200 to 800 nM.
For the compound `Cn1ccc2cc(-c3cc4c(C(=O)NCc5ncco5)c(O)[nH]c4cc3Cl)ccc21` [Compound 32], the Emax lay in the range of 70 to 100%. The EC50 under setting [1] was in the range of 200 to 800 nM.
Regarding `O=C(Nc1cc[nH]n1)c1c[nH]c2cc(Cl)c(-c3ccc(C4(O)CCC4)cc3)cc12` [Compound 33], the Emax was over 100%. Moreover, the EC50 under setting [1] lay in the range of 200 to 800 nM.
Turning to `O=C(Nc1cc[nH]n1)c1c[nH]c2cc(Cl)c(-c3ccc(-c4ccccc4O)cc3)cc12` [Compound 34], the EC50 fell in the range of 200 to 800 nM and the Emax was over 100%.
For `O=C(NCc1nnn[nH]1)c1c[nH]c2cc(Cl)c(-c3ccc(C4(CO)CC4)cc3)cc12` [Compound 35], the Emax was over 100%. The concentration for a half-maximal effect (EC50) under setting [1] was under 200 nM.
With `O=C(NCc1ccco1)c1c[nH]c2cc(Cl)c(-c3ccc(-c4ccccc4O)cc3)cc12` [Compound 36], the Emax lay within 50 to 70%. Also, the EC50 under setting [1] was under 200 nM.
The matching figures for `O=C(NCc1ccco1)c1c(O)[nH]c2cc(Cl)c(-c3ccc(-c4ccccc4O)cc3)cc12` [Compound 37]: over 100% and 200 to 800 nM.
